Experiment: Levels of doxophylline metabolites in mice plasma
Assay type: in vivo
Excerpt: From an analysis of the levels of metabolites in mice plasma, it was seen that deuteration of the dioxolane ring (d4-doxophylline) triggered considerable alterations in the relative abundances of the metabolites generated. […] This is mainly related to a marked increase of the metabolic route 2, in which the electronic influence of the two oxygen atoms adjacent to the target sp^3 carbon atom greatly facilitates oxene attack and homolytic cleavage of the C–H bond.[29]
With regard to d7-doxophylline, only a semiquantitative determination was feasible because its metabolites (with the exception of theophylline) retain deuterium atoms (see the Supporting Information for structures). Indeed, the presence of deuterium lowers the signals in the electrospray ionization source, and the corresponding deuterated standards of the metabolites would have been necessary to perform an accurate quantification. Moreover, no reference standard was available for the quantification of the metabolites dm-doxophylline 9 and dh-doxophylline 10, and their relative abundances were expressed as peak areas of the corresponding accurate-mass ions.
• Comparative pharmacokinetic study
A total of 96 CD1 male mice, approximately 6 weeks old and with a body weight of approximately 30 g, were purchased from Envigo RMS srl, (San Pietro al Natisone, UD, Italy). […]
Protocol for drug administration and blood sampling.
Blood samples were collected under light isoflurane anaesthesia from the sublingual vein at the following time points (n=3): pre-dose and 5, 15, 30 minutes, 1, 2, 4, 8 and 24 hours after i.v. dosing (20 mg/Kg, dose volume 5 mL/Kg) and pre-dose and 15, 30 minutes, 1, 2, 4, 8 and 24 hours after oral gavage dosing (80 mg/Kg, dose volume 5 mL/Kg). Each animal was sampled on each day at a maximum of two alternating time points.
Samples were transferred into tubes containing K3EDTA as anticoagulant, centrifuged, and stored at -80 °C. […] Sample preparation for HPLC-MS analysis.
A volume of 50 µL of caffeine solution (1 mg/L in water-methanol 1:1) were added to plasma sample aliquots (50 µL); after the addition of the precipitant solution (100 µL of 10% ice-cold trichloroacetic acid in water), samples were centrifuged at 13,000 rpm for ten minutes and the supernatant injected onto the HPLC system (see supporting information for chromatographic conditions). If the levels of analytes were over range, plasma samples were preventively diluted with blank plasma.
Quantification of doxophylline and its deuterated analogues d4 and d7 as well as their main metabolites, 7-theophylline acetic acid (T-COOH), 7-hydroxyethyl theophylline (Eto) and theophylline, was performed by using the calibration curves obtained with the corresponding working standards of the analytes and using caffeine as internal standard.
The pharmacokinetic parameters for doxophylline and its deuterated analogues were calculated by plotting the plasma concentration curves versus time obtained from the average values of three animals, using PK Solver

Row | level of metabolite etophylline 7 versus doxophylline | plasmatic level of metabolite theophylline 1 versus doxophylline | level of dehydrogenated metabolite dh-doxophylline 10 versus doxophylline (peak area) | plasmatic level of metabolite dm-doxophylline 9 versus doxophylline (peak area) | levels of all metabolites except dm-doxophylline 9 versus doxophylline (semiquantitative determination) | SMILES
1 | decreased level | significant increase | decrease | significant increase | – | [2H]C1([2H])OC(Cn2cnc3c2c(=O)n(C)c(=O)n3C)OC1([2H])[2H] [d4-doxophylline]
2 | – | – | – | – | diminished levels | [2H]C1([2H])OC([2H])(C([2H])([2H])n2cnc3c2c(=O)n(C)c(=O)n3C)OC1([2H])[2H] [d7-doxophylline]
